Results published in ChEMBL document CHEMBL4725326, “Synthesis, α-glucosidase inhibition, and molecular docking studies of novel N-substituted hydrazide derivatives of atranorin as antidiabetic agents” (Bioorg Med Chem Lett, 2020).

Assays:
[1] = Inhibition of alpha-glucosidase (unknown origin); design: species or system Homo sapiens
HEK293 = assay: Cytotoxicity against HEK293 cells assessed as reduction in cell viability; format: cell-based; details: Homo sapiens

Structure (SMILES)	IC50 [1] [µM]	IC50 (HEK293) [µM]
COC(=O)c1c(C)cc(OC(=O)c2c(C)cc(O)c(/C=N/NC(=O)COc3ccc(C)cc3)c2O)c(C)c1O	54.7	> 100
COC(=O)c1c(C)cc(OC(=O)c2c(C)cc(O)c(/C=N/NC(=O)COc3ccc4ccccc4c3)c2O)c(C)c1O	18.9	52.7
COC(=O)c1c(C)cc(OC(=O)c2c(C)cc(O)c(/C=N/NC(=O)CNc3ccc(C)cc3)c2O)c(C)c1O	31.5	> 100
COC(=O)c1c(C)cc(OC(=O)c2c(C)cc(O)c(/C=N/NC(=O)COc3ccccc3C)c2O)c(C)c1O	53.3	> 100
COC(=O)c1c(C)cc(OC(=O)c2c(C)cc(O)c(/C=N/NC(=O)c3cc(Cl)ccc3O)c2O)c(C)c1O	9.91	63.2
COc1cccc2c1C(=O)c1c(O)c3c(c(O)c1C2=O)C[C@@](O)(C(=O)CO)C[C@@H]3O[C@H]1C[C@H](N)[C@H](O)[C@H](C)O1 [DOXORUBICIN]	–	7.92
COC(=O)c1c(C)cc(OC(=O)c2c(C)cc(O)c(/C=N/NC(=O)COc3cc(C)ccc3C(C)C)c2O)c(C)c1O	28.1	> 100
COC(=O)c1c(C)cc(OC(=O)c2c(C)cc(O)c(/C=N/NC(=O)COc3cc4ccccc4o3)c2O)c(C)c1O	39.7	84.4
COC(=O)c1c(C)cc(OC(=O)c2c(C)cc(O)c(C=O)c2O)c(C)c1O [ATRANORIN]	> 100	–
C[C@H]1O[C@H](O[C@H]2[C@H](O)[C@@H](O)[C@@H](O[C@H]3[C@H](O)[C@@H](O)C(O)O[C@@H]3CO)O[C@@H]2CO)[C@H](O)[C@@H](O)[C@@H]1N[C@H]1C=C(CO)[C@@H](O)[C@H](O)[C@H]1O (some centres not stated) [ACARBOSE]	93.6	–
COC(=O)c1c(C)cc(OC(=O)c2c(C)cc(O)c(/C=N/NC(=O)COc3cccc(C)c3)c2O)c(C)c1O	40.6	> 100
COC(=O)c1c(C)cc(OC(=O)c2c(C)cc(O)c(/C=N/NC(=O)COc3ccc(Br)cc3)c2O)c(C)c1O	17.3	> 100
COC(=O)c1c(C)cc(OC(=O)c2c(C)cc(O)c(/C=N/NC(=O)c3cc(I)ccc3O)c2O)c(C)c1O	41.2	94.1
COC(=O)c1c(C)cc(OC(=O)c2c(C)cc(O)c(/C=N/NC(=O)CSc3nc4ccccc4s3)c2O)c(C)c1O	9.12	70.1
COC(=O)c1c(C)cc(OC(=O)c2c(C)cc(O)c(/C=N/NC(=O)Cc3ccccc3)c2O)c(C)c1O	6.67	> 100
